From patent US11479546B2, “Antimalarial hexahydropyrimidine analogues” (UCB Biopharma SRL, priority 2018, dated 2022)

Key:
[1] = system: Plasmodium falciparum 3D7; test: P. falciparum 3D7 asexual blood stage assay, Assay Procedure Version 1 (SYBR green readout); format: cell-based; conditions: 3D7, Erythrocyte, Version 1 of the assay procedure (no asterisk), 72 h incubation in infected erythrocytes, 10,000 nM to 0.51 nM
Description: Asexual Blood Stage Assay
The assay used to measure the effect of test compounds on a bloodstream stage of Plasmodium falciparum 3D7 strain employs SYBR green as the readout. This is a dye that binds to double stranded deoxyribonucleic acid (DNA) with a resulting increase in fluorescence, allowing detection of P. falciparum DNA in infected erythrocytes, and thereby providing a measure of parasite growth and propagation.
P. falciparum Culture Maintenance
Erythrocytes (A+blood) were prepared for both parasite culture and assay by washing 4 times with incomplete media (15.9 g RPMI 1640 (25 mM HEPES, L-glutamine), 1 g NaHCO3, 2 g glucose, 400 μL gentacin (500 mg/mL), 2 mL hypoxanthine solution (13.6 g/L in 0.1M NaOH pH 7.3) in 1 litre of media). The cells were centrifuged at 1800 g for 5 minutes, before decanting the supernatant and re-suspending in fresh incomplete media. On the final wash, the cells were re-suspended in complete media (incomplete media with 5 g/L AlbumaxII), and centrifuged at 1800 g for 3 minutes. This cell sediment was treated as 100% haematocrit.
P. falciparum 3D7 was cultured in erythrocytes at 5% haematocrit in complete media at 37° C. (1% O2, 3% CO2, balance N2). Cultures were split on a weekly basis to achieve a 1% parasitaemia in erythrocites at 5% haematocrit in fresh media. Culture media is replaced by fresh media every other day (2 times during the week).
Assay Procedure—Version 1
On day 1, test compounds were added to assay plates using Echo dispensing technology (3 fold dilution and 10 points titration). 50 nL of each compound dilution was added to 50 μL of culture (5% haematocrit, 0.5% parasitaemia) and incubated for 72 h at 37° C. (1% O2, 3% CO2, balance N2). Final concentrations of test compounds ranged from 10,000 nM to 0.51 nM, in […].
On day 4, 10 μL SYBR green (Invitrogen S7563 supplied as 10,000×concentrate in DMSO) pre-diluted to 3× concentrate with Lysis buffer (20 mM Tris pH 7.9, 5% EDTA, 0.16% w/v, 1.6% TX100 v/v) was added to the cultures and incubated in the dark, overnight, at room temperature.
On day 5, fluorescent signal was measured using a BioTek plate reader (excitation 485 nm, emission 528 nm). All data were processed using IDBS ActivityBase. Raw data were converted into percent inhibition through linear regression by setting the high inhibition control as 100% and the no inhibition control as 0%. Quality control criteria for passing plates were as follows: Z′>0.5, S:B>3, % CV(no inhibition control)<15. The formula used to calculate Z′ is
All EC50 curve fitting was undertaken using the following 4 parametric equation:
[formula] where A=% inhibition at bottom; B=% inhibition at top; C=EC50; D=slope; x=inhibitor concentration; and y=% inhibition. […] Assay Procedure—Version 2

[2] = system: Plasmodium falciparum 3D7; test: P. falciparum 3D7 asexual blood stage assay, Assay Procedure Version 2 (SYBR green readout); format: cell-based; conditions: Version 2 of the assay procedure (asterisk *), 72 h incubation in infected erythrocytes, 50,000 nM to 15 nM
Summary of the method: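 P. falciparum 3D7 in A+ erythrocytes (5% haematocrit, 0.5% parasitaemia) exposed 72 h at 37 °C (1% O2, 3% CO2) to 20-point 1.5-fold titrations, final 50,000–15 nM in 0.5% DMSO. SYBR green in lysis buffer overnight, fluorescence 485/528 nm; % inhibition vs mefloquine and DMSO controls, EC50 from biphasic two-site fit.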

[3] = Plasmodium falciparum, 3D7, Erythrocyte, 72 h

Row | Compound | IC50 [2, 3] [nM] | further results
1 | C[C@@]1(c2cccc(Nc3ccc(F)cc3)c2Cl)CC(=O)N([C@H]2C[C@@H]3CC[C@H]2O3)C(=N)N1 (racemic) [Example 188, (6S)-6-[2-Chloro-3-(4-fluoro-anilino)phenyl]-2-imino-6-methyl-3-[(1RS,2SR,4SR)-7-oxabicyclo[2.2.1]heptan-3-yl]-hexahydropyrimidin-4-one] | – | IC50 [1]: 3460 nM
2 | Cc1ccc(Nc2cccc([C@]3(C)CC(=O)N(C4CCC(F)(F)CC4)C(=N)N3)c2Cl)cn1 [Example 139, (6S)-6-{2-Chloro-3-[(6-methyl-pyridin-3-yl)amino]phenyl}-3-(4,4-difluorocyclohexyl)-2-imino-6-methylhexahydro-pyrimidin-4-one] | 132 | –
3 | C[C@@]1(c2cccc(Nc3ccc(OC(F)F)nc3)c2Cl)CC(=O)N(C2CCC(F)(F)CC2)C(=N)N1 [Example 140, (6S)-6-(2-Chloro-3-{[6-(difluoromethoxy)pyridin-3-yl]-amino}phenyl)-3-(4,4-difluoro-cyclohexyl)-2-imino-6-methyl-hexahydropyrimidin-4-one] | 704 | –
4 | CC(C)(C)c1ncc(Nc2cccc([C@]3(C)CC(=O)N(C4CCC(F)(F)CC4)C(=N)N3)c2Cl)cn1 [Example 141, (6S)-6-{3-[(2-tert-Butyl-pyrimidin-5-yl)amino]-2-chloro-phenyl]-3-(4,4-difluoro-cyclohexyl)-2-imino-6-methyl-hexahydropyrimidin-4-one] | 180 | –
5 | C[C@@]1(c2cccc(Nc3ccc(C4CC4)nc3)c2Cl)CC(=O)N(C2CCC(F)(F)CC2)C(=N)N1 [Example 142, (6S)-6-{2-Chloro-3-[(6-cyclo-propylpyridin-3-yl)amino]-phenyl}-3-(4,4-difluoro-cyclohexyl)-2-imino-6-methyl-hexahydropyrimidin-4-one] | 232 | –
6 | Cc1ccc(Nc2cccc([C@]3(C)CC(=O)N([C@H]4C[C@](O)(C(F)(F)F)C4)C(=N)N3)c2Cl)cn1 [Example 152, (6S)-6-{2-Chloro-3-[(6-methyl-pyridin-3-yl)amino]phenyl}-3-[3-hydroxy-3-(trifluoromethyl)-cyclobutyl]-2-imino-6-methyl-hexahydropyrimidin-4-one (cis isomer)] | 613 | –
7 | Cc1ccc(Nc2cccc([C@]3(C)CC(=O)N([C@H]4C[C@@](O)(C(F)(F)F)C4)C(=N)N3)c2Cl)cn1 [Example 153, (6S)-6-{2-Chloro-3-[(6-methyl-pyridin-3-yl)amino]phenyl}-3-[3-hydroxy-3-(trifluoromethyl)-cyclobutyl]-2-imino-6-methyl-hexahydropyrimidin-4-one (trans isomer)] | 3220 | –
8 | C[C@@]1(c2cccc(Nc3ccc(C4CC4)nc3)c2Cl)CC(=O)N([C@H]2C[C@](O)(C(F)(F)F)C2)C(=N)N1 [Example 154, (6S)-6-{2-Chloro-3-[(6-cyclo-propylpyridin-3-yl)amino]-phenyl}-3-[3-hydroxy-3-(trifluoromethyl)cyclobutyl]-2-imino-6-methylhexahydro-pyrimidin-4-one (cis isomer)] | 884 | –
9 | C[C@@]1(c2cccc(Nc3ccc(C(F)(F)F)cc3)c2Cl)CC(=O)N([C@H]2C[C@@](C)(O)C2)C(=N)N1 [Example 174, (6S)-6-{2-Chloro-3-[4-(trifluoromethyl)anilino]-phenyl}-3-(3-hydroxy-3-methyl-cyclobutyl)-2-imino-6-methyl-hexahydropyrimidin-4-one] | 764 | –
10 | C[C@@]1(c2cccc(Nc3ccc(Cl)cc3)c2Cl)CC(=O)N([C@H]2C[C@@](C)(O)C2)C(=N)N1 [Example 176, (6S)-6-[2-Chloro-3-(4-chloro-anilino)phenyl]-3-(3-hydroxy-3-methylcyclobutyl)-2-imino-6-methylhexahydropyrimidin-4-one] | 460 | –
11 | CC[C@]1(O)C[C@H](N2C(=N)N[C@](C)(c3cccc(Nc4ccc(F)cc4)c3Cl)CC2=O)C1 [Example 177, (6S)-6-[2-Chloro-3-(4-fluoro-anilino)phenyl]-3-(3-ethyl-3-hydroxycyclobutyl)-2-imino-6-methylhexahydropyrimidin-4-one (trans isomer)] | 2450 | –
12 | CC[C@]1(O)C[C@@H](N2C(=N)N[C@](C)(c3cccc(Nc4ccc(F)cc4)c3Cl)CC2=O)C1 [Example 178, (6S)-6-[2-Chloro-3-(4-fluoro-anilino)phenyl]-3-(3-ethyl-3-hydroxycyclobutyl)-2-imino-6-methylhexahydropyrimidin-4-one (cis isomer)] | 428 | –
13 | C[C@@]1(c2cccc(Nc3ccc(F)cc3)c2Cl)CC(=O)N(C2CC(O)(C(F)(F)F)C2)C(=N)N1 [Example 179, (6S)-6-[2-Chloro-3-(4-fluoro-anilino)phenyl]-3-[3-hydroxy-3-(trifluoromethyl)cyclobutyl]-2-imino-6-methyl-hexahydro-pyrimidin-4-one (cis isomer)] | 381 | –
14 | CC1(C#N)CC(N2C(=N)N[C@](C)(c3cccc(Nc4ccc(F)cc4)c3Cl)CC2=O)C1 [Example 180, 3-{(4S)-4-[2-Chloro-3-(4-fluoroanilino)phenyl]-2-imino-4-methyl-6-oxohexahydro-pyrimidin-1-yl}-1-methyl-cyclobutanecarbonitrile (trans isomer)] | – | IC50 [2]: 629 nM
15 | CC1(C#N)CC(N2C(=N)N[C@](C)(c3cccc(Nc4ccc(F)cc4)c3Cl)CC2=O)C1 [Example 181, 3-{(4S)-4-[2-Chloro-3-(4-fluoroanilino)phenyl]-2-imino-4-methyl-6-oxohexahydro-pyrimidin-1-yl}-1-methyl-cyclobutanecarbonitrile (cis isomer)] | – | IC50 [2]: 201 nM
16 | C[C@@]1(c2cccc(Nc3ccc(Cl)cn3)c2Cl)CC(=O)N(C2CCOCC2)C(=N)N1 [Example 182, (6S)-6-{2-Chloro-3-[(5-chloro-pyridin-2-yl)amino]phenyl}-2-imino-6-methyl-3-(tetrahydro-yran-4-yl)-hexahydropyrimidin-4-one] | 466 | –
17 | C[C@@]1(c2cccc(Nc3ccc(C#N)cn3)c2Cl)CC(=O)N(C2CCOCC2)C(=N)N1 [Example 183, 6-{2-Chloro-3-[(4S)-2-imino-4-methyl-6-oxo-1-(tetrahydro-pyran-4-yl)hexahydropyrimidin-4-yl]anilino}pyridine-3-carbo-nitrile] | 582 | –
18 | C[C@@]1(c2cccc(Nc3ncccc3C#N)c2Cl)CC(=O)N(C2CCOCC2)C(=N)N1 [Example 184, 2-{2-Chloro-3-[(4S)-2-imino-4-methyl-6-oxo-1-(tetrahydro-pyran-4-yl)hexahydropyrimidin-4-yl]anilino}pyridine-3-carbo-nitrile] | 217 | –
19 | C[C@@]1(c2cccc(Nc3cnc4ccccn34)c2Cl)CC(=O)N(C2CCOCC2)C(=N)N1 [Example 185, (6S)-6-[2-Chloro-3-(imidazo-[1,2-a]pyridin-3-ylamino)-phenyl]-2-imino-6-methyl-3-(tetrahydropyran-4-yl)-hexahydropyrimidin-4-one] | 565 | –
20 | Cc1nn(-c2ccccc2)c(C)c1Nc1cccc([C@]2(C)CC(=O)N(C3CCOCC3)C(=N)N2)c1Cl [Example 186, (6S)-6-{2-Chloro-3-[(3,5-dimethyl-1-phenylpyrazol-4-yl)-amino]phenyl}-2-imino-6-methyl-3-(tetrahydropyran-4-yl)hexahydropyrimidin-4-one] | 456 | –
21 | C[C@@]1(c2cccc(Nc3ncc4ccccn34)c2Cl)CC(=O)N(C2CCOCC2)C(=N)N1 [Example 187, (6S)-6-[2-Chloro-3-(imidazo-[1,5-a]pyridin-3-ylamino)-phenyl]-2-imino-6-methyl-3-(tetrahydropyran-4-yl)-hexahydropyrimidin-4-one] | 385 | –
22 | C[C@@]1(c2cccc(Nc3ccc(C4CC4)nn3)c2Cl)CC(=O)N(C2CCOCC2)C(=N)N1 [Example 197, (6S)-6-{2-Chloro-3-[(6-cyclo-propylpyridazin-3-yl)amino]-phenyl}-2-imino-6-methyl-3-(tetrahydropyran-4-yl)-hexahydropyrimidin-4-one] | 536 | –
